As a reminder, the CLint scaled is the capacity of the preparation to metabolise the compound, expressed as a volume cleared per time. High values mean faster metabolism, low ones greater metabolic stability. The term half-life denotes the time in which the quantity being followed falls by half. Low readings indicate rapid decline, high ones slow decline. One may read the IC50 as the point on the concentration scale where inhibition reaches its midpoint.

One series is described as follows: in vitro. The note with it: human, microsomes; for CLint scaled at 1 μM / half-life at 1 μM: pH 7.4. Here is the method:
Test compound concentration: 1.0 μM
Buffer solution: 0.05 M phosphate buffer solution (pH 7.4)
Human liver microsomes: Corning® UltraPool™ HLM 150, 20 mg/mL
NADPH concentration: 1.0 mM
Total reaction volume: 850 μL
Incubation temperature: 37° C.
Pre-incubation time: 5 min (no NADPH added)
Sampling time: 0, 5, 10, 15, 20 and 30 min (0, 15 and 30 min for control group)
Sampling volume: 85 μL per time point
Test compounds: Verapamil, Dasatinib, and the compound of Formula I
a) Solutions of 10 mM test compounds in DMSO were diluted to 100 μM using acetonitrile:water (50:50).
c) 2.5 mM NADPH solution was formulated.
d) The liver microsomal protein, buffer solution, and test compound were pipetted sequentially into 1.5 ml incubation tubes according to the volume in the experimental design table, and incubated at 37° C. for 5 min with constant shaking.
e) 85 μL of the quenching reagent was added into a 250 μL quenching vial which was then placed on an ice bath.
f) The reaction was initiated by adding NADPH solution, and 85 μL sample was immediately taken and mixed evenly in the quenching vial with controlled incubation and quenching, this is referred to 0 min sampling point. The sample was capped, vortexed and centrifuged at 4° C.
g) The quenching solution was placed at 4° C. for 10 min for the precipitation of the protein.
h) The operations of other sampling points was similar to that of the 0 min sampling point.
i) The sample quenching reaction mixture solution was thoroughly mixed evenly and centrifuged at 14000 rpm for 10 min at room temperature.
j) The supernatant (˜100 μl) was pipetted for LC-MS analysis.
Instrument: Waters® ACQUITY HPLC-Xevo G2-XS QTof
Chromatographic column: ACQUITY UPLC® BEH C18 column 2.1×50 mm, 1.7 μm
Mobile phase: mobile phase A was 0.1% formic acid in water and mobile phase B was 0.1% formic acid in acetonitrile.
The amount of the parent compound at each time point was determined based on the peak area ratio (compound area/warfarin area).
The intrinsic clearance (CLint) was calculated by the following equation:
V(μL/mg)=volume of incubation (μL)/protein amount in the incubation (mg)

The target of another series is T1, ABL1 (Homo sapiens, UniProt P00519).
T1 construct: purchased Invitrogen
T1 sequence (P00519 whole entry): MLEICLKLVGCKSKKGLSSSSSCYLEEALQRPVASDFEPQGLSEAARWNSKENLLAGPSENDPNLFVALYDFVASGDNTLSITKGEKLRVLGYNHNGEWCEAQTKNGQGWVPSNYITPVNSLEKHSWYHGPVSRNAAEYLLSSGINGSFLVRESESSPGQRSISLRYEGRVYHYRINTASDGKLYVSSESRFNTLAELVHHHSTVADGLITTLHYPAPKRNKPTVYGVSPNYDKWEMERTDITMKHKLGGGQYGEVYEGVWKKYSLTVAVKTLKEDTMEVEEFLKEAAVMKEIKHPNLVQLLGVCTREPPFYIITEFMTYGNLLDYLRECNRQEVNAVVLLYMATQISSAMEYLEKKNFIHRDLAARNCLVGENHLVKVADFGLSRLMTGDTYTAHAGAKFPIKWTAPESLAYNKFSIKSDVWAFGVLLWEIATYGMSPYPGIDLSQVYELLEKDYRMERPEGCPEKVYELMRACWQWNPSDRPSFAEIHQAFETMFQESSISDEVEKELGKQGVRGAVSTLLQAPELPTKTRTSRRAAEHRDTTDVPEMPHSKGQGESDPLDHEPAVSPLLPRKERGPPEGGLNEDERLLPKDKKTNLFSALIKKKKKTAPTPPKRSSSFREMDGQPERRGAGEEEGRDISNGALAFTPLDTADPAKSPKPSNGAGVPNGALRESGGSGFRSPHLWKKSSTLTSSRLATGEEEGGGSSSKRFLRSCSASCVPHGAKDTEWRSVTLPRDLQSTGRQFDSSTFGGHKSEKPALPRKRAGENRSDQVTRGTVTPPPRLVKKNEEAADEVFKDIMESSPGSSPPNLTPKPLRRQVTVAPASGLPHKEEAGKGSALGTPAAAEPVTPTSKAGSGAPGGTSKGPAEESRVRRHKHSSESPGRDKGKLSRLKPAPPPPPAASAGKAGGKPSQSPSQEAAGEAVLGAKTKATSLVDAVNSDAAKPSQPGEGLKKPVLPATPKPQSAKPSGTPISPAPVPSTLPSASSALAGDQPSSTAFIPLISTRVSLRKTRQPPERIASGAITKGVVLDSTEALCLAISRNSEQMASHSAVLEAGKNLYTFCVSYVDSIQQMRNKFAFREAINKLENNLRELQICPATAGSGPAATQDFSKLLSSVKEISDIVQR
In words: In vitro kinase inhibition activity (33P-ATP radiometric filter assay), ABL1. It is filed as biochemical. The procedure: (§1) Test group: 50 μl DMSO was used to dissolve the compound of Formula I and Dasatinib, respectively, and the final drug concentration was 10 mM.
(§2) Starting concentration of drugs in the test group: 1 μM
(§3) Buffer solution conditions: 20 mM Hepes (pH 7.5), 10 mM MgCl2, 1 mM EGTA, 0.02% Brij35, 0.02 mg/ml BSA, 0.1 mM Na3VO4, 2 mM DTT, 1% DMSO.
(§4) Note: Required enzyme cofactor were added separately to each kinase reaction.
(§5) a) An indicated substrate was prepared in a freshly made reaction buffer.
(§6) b) Any required enzyme cofactors were added into the substrate solution described above.
(§7) c) The indicated kinase was added into the substrate solution and gently mixed.
(§8) d) The test drugs were added into the kinase reaction mixture using Echo 550.
(§9) e) ^33P-ATP (specific radioactivity 0.01 μCi/μl) was added into the reaction mixture, and the reaction was initiated.
(§10) g) The reaction was spotted onto P81 ion-exchange paper.
(§11) h) The filter was washed with 0.75% phosphoric acid.
(§12) i) The radioactive phosphorylated substrate remaining on the filter paper was measured.
(§13) Kinase activity data are expressed as the percent of the remaining kinase activity in the test samples compared with the reactions of the vehicle (dimethyl sulfoxide). IC50 values and curve fitting were obtained using Prism4 software (GraphPad).

The next series deals with T2, BTK (Homo sapiens, UniProt Q06187).
T2 construct: purchased Invitrogen
T2 sequence (Q06187 whole entry): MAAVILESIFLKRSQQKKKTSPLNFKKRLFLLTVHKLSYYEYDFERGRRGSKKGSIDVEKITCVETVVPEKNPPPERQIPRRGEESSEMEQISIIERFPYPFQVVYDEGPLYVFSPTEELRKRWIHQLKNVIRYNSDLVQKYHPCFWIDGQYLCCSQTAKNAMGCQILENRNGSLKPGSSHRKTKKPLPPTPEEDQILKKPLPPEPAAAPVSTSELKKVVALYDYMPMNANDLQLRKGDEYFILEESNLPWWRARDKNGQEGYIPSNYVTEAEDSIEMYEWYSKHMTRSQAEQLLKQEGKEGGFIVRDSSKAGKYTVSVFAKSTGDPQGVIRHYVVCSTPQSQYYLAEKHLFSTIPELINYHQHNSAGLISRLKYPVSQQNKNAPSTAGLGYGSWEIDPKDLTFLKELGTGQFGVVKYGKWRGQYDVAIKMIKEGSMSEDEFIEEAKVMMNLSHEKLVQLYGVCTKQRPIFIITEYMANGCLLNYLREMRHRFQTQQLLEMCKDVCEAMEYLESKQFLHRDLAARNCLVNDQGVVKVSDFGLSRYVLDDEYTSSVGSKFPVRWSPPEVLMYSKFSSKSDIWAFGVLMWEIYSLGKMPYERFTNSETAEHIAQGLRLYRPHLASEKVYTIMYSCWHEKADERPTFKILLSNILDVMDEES
In words: In vitro kinase inhibition activity (33P-ATP radiometric filter assay), BTK. It is filed as biochemical. The procedure:
as §1, §2, §3, §4, §5, §6, §7, §8, §9, §10, §11, §12, §13

The target of the next series is T3, BTK (C481S) (Homo sapiens, UniProt Q06187, C481S).
T3 construct: purchased Signal Chem
T3 sequence (Q06187 whole entry C481S): as the sequence (Q06187 whole entry) above, with C481S counted along it
Nature of the series: In vitro kinase inhibition activity (33P-ATP radiometric filter assay), BTK (C481S). It is filed as biochemical. The procedure:
as §1, §2, §3, §4, §5, §6, §7, §8, §9, §10, §11, §12, §13

As for `Cc1nc(Nc2ncc(C(=O)Nc3c(C)cccc3Cl)s2)cc(N2CCN(CCO)CC2)n1` [Dasatinib, reference compound], in “in vitro”, the “Clearance” value was 0.0635 min⁻¹, the CLint scaled at 1 μM is 211 mL/min/kg and the half-life at 1 μM worked out at 10.9 min.
`Cc1nc(Nc2ncc(C(=O)Nc3c(C)cc(F)cc3Cl)s2)cc(N2CCN(CCO)CC2)n1` [The compound of Formula I, N-(2-chloro-4-fluoro-6-methylphenyl)-2-[[6-[4-(2-hydroxyethyl)-1-piperazinyl]-2-methyl-4-pyrimidinyl]amino]-5-thiazolecarboxamide]: the half-maximal inhibitory concentration (IC50) was found to be 4.2 pM against ABL1 (ABL1 0.1 nM, ABLtide 20 μM, ATP 10 μM, 15 min compound incubation, 2 h reaction); 157 pM on BTK (BTK 8 nM, pEY 0.2 mg/ml, ATP 10 μM, 15 min compound incubation, 2 h reaction); 32 pM against BTK (C481S) (BTK (C481S) 6 nM, pEY 0.2 mg/ml, ATP 10 μM, 15 min compound incubation, 2 h reaction). Besides, the “Ratio Dasatinib/the compound of Formula I” value on ABL1 (ratio of IC50 values, ABL1) was 5.95; on BTK (ratio of IC50 values, BTK) it was 3.32; at BTK (C481S) (ratio of IC50 values, BTK (C481S)) it was 3.53. For the same compound, the “Clearance” value in the series “in vitro” was determined as 0.0426 min⁻¹. The intrinsic metabolic clearance (CLint scaled) at 1 μM in the series “in vitro” stood at 142 mL/min/kg. In the series “in vitro”, this compound came in with a half-life at 1 μM of 16.3 min.

Values taken from patent US20220249480A1, “APPLICATION OF FLUORO-SUBSTITUTED 2-AMINOTHIAZOLE-5-AROMATIC CARBOXAMIDE” (HUNAN WARRANT PHARMACEUTICAL CO., LTD, priority 2019, published 2022).
